“Also recorded” adds a separate entry of the source.
Legend:
[1] = system: Primary WT mouse aortic smooth muscle cells; assay: alamarBlue cell viability assay in primary mouse aortic smooth muscle cells; format: cell-based; details: 48 hours after treatment; 10% FBS/DMEM; increasing concentrations; p<0.0001 vs vehicle (0 uM)
Experimental: FIG. 11. Primary WT mouse aortic smooth muscle cells cultured in 10% FBS/DMEM medium were exposed to increasing concentrations of ICG-001 or vehicle (triplicates for each concentration). Cell viability was measured 48 hours after treatment by alamarBlue Assay. Cell viability (%, relative to vehicle treated cells, which were set as 100%) is plotted against the concentration of ICG-001 (uM).
(§1) In order to test the role of Wnt/beta-catenin signaling in vascular SMC biology, beta-catenin was specifically inactivated in SMCs, using a genetic approach in the mouse. […] After midgestation, dilated arterial vessels without an evident SMC layer were observed (FIG. 7). […] It was determined that increased p53 activity in SMCs partially explains the effects of inactivating beta-catenin (FIG. 9).

p53 = p53 luciferase-based reporter assay in primary vascular SMCs; format: cell-based; details: control primary vascular SMCs (Adeno-GFP)
Experimental: FIG. 10. […] The activity of p53 was measured by a luciferase-based reporter assay.
as §1

## O=C1[C@H](Cc2ccc(O)cc2)N2C(=O)CCN(C(=O)NCc3ccccc3)[C@H]2CN1Cc1cccc2ccccc12 [ICG-001]
[1]
  Cell viability (%, relative to vehicle treated cells): significantly decreases viability of MASMCs in culture in a dose-response manner

## Oc1nc(-c2ccc(C(F)(F)F)cc2)nc2c1CSCC2 [XAV939]
p53; 10 uM XAV939, p<0.05
  p53 activity compared to vehicle (DMSO): significant increase in p53 activity
p53; wild type, luciferase-based reporter, dose dependence
  p53 activity: induced p53 activity in control primary vascular SMCs (Adeno-GFP) in a dose dependent manner; also recorded: induced p53 activity in wild type vascular SMCs
